Experimental data taken from patent publication US10272117B2, “Methods of using an activator of cereblon for neural cell expansion and the treatment of central nervous system disorders” (Celgene Corporation, priority 2014, dated 2019).
Peptide text beside a SMILES is read from it. * marks the point of attachment. Cbz = O=C(OCc1ccccc1)*

Assays:
[1] = system: CRBN; test: Detection of the CRBN ubiquitin ligase activity using live cells; type: cell-based; settings: mammalian cells expressing FLAG-CRBN, immunoblotting
Experimental: This process was carried out basically in accordance with the method of Ohtake et al. See Ohtake et al., Nature, 446:562-566 (2007). MG132, which was a proteasome inhibitor, was applied to mammalian cells expressing CRBN fused with a FLAG epitope tag, and the cells were left still. Subsequently, the cells were disrupted, and from the resulting cell lysate solution, FLAG was purified, and CRBN was extracted. Then immunoblotting was performed under similar, but stricter, conditions to the above, whereby self-ubiquitination was detected and measured.

[2] = system: zebrafish embryos; test: Quantitative PCR of gene expression in zebrafish embryos; type: in vivo; settings: 11 hpf
Experimental: BRD7-knockdown zebrafish embryos show similar phenotypes as CRBN-overexpressing zebrafish embryos. For example, expression of HuC in untreated, CRBN-overexpressing, and BRD7-knockdown zebrafish embryos was compared by quantitative PCR. Quantitative PCR was performed as follows: 1.7 μg of random […] and oligo-dT primed cDNA synthesized by ReverTra Ace qPCR RT Kit (TOYOBO, Japan) (as template) were used for reverse transcription by THUNDERBIRD™ SYBR® qPCR Mix (Toyobo, Japan). 0.25 mM of each forward and reverse primers were used in the reaction, wherein the sequence of the forward primer was 5′-[…]-3′ (SEQ ID NO: 9); and the sequence of the reverse primer was 5′-[…]-3′ (SEQ ID NO: 10).
Expression of Pou5f1 (Oct3/4), c-Myc, Sox2, and Nanog in zebrafish embryos was analyzed by quantitative PCR. Quantitative RT (qRT)-PCR was performed as follows: 1.7 μg of random hexamer and oligo-dT primed cDNA synthesized by ReverTra Ace qPCR RT Kit (TOYOBO, Japan) (as template) were used for reverse transcription by THUNDERBIRD™ SYBR® qPCR Mix (Toyobo, Japan). 0.25 mM of each forward and reverse primers was used in the reaction. The sequences of primers for c-Myc are as follows: forward primer is 5′-[…]-3′ (SEQ ID NO: 15), and reverse primer is 5′-GTAAAACGACGGCCAGT-3′ (SEQ ID NO: 16). The sequences of primers for sox2 are as follows: forward primer is 5′-ACCCCGGAGGAAAACCAA-3′ (SEQ ID NO: 17), and reverse primer is 5′-CCCGGCAGGGTGTACTTG-3′ (SEQ ID NO: 18). The sequences of primers for nanog are as follows: forward primer is 5′-TACCCAACACACCAGCTTC-3′ (SEQ ID NO: 19), and reverse primer is 5′-GAAGGGTGTTTTTGGAGGA-3′ (SEQ ID NO: 20).
Expression of a pool of three genes, Ascl1, Brn2 (Pou3f2), and Myt1la, is sufficient to directly reprogram embryonic and postnatal fibroblasts into functional neurons. See, e.g., Vierbuchen and Wernig, Nat Biotechnol. 29:892-907 […]. […] Primer sequences for amplification for Ascl1a are as follows: forward primer is 5′-ACGAGCATGACGCCGTA-3′ (SEQ ID NO: 21), and reverse primer is 5′-[…]-3′ (SEQ ID NO: 22). Primer sequences for amplification for Pou3f2b are as follows: forward primer is 5′-[…]-3′ (SEQ ID NO: 23), and reverse primer is 5′-[…]-3′(SEQ ID NO: 24). Primer sequences for amplification for Myt1la are as follows: forward primer is 5′-[…]-3′ (SEQ ID NO: 25), and reverse primer is 5′-[…]-3′ (SEQ ID NO: 26). FIG. […]
Notch3 and Neuropilin2b (Nrp2b) are required for cell proliferation progression. Notch3 regulates the timing of neural differentiation from undifferentiated or immature cells, and Nrp2b regulates cell proliferation and remodeling in mesenchymal stem cells by cooperating with PDGF (platelet-derived growth factor). Therefore, expression of Notch3 and Neuropilin 2b (Nrp2b) was analyzed in untreated and CRBN-overexpressing zebrafish embryos by quantitative PCR. The primers used for Notch3 are as follows: the sequence for forward primer is 5′-[…]-3′ (SEQ ID NO: 27), and the sequence for reverse primer is 5′-[…]-3′ (SEQ ID NO: 28). The primers used for Nrp2b are as follows: the sequence of forward primer is 5′-[…]-3′ (SEQ ID NO: 29), and the sequence of reverse primer is 5′-[…]-3′ (SEQ ID NO: 30). FIG. 29A is a histogram showing the mRNA level of Notch3 and Nrp2b in untreated, CRBN-overexpressing, and thalidomide-treated zebrafish embryos at 11 hpf by quantitative PCR. As shown, expression of Notch3 in the CRBN-overexpressing embryos increased to 1.8-fold of the level in the untreated embryos at 11 hpf, and expression of Nrp2b in the CRBN-overexpressing embryos increased to 2.7-fold of the level in the untreated embryos at the same stage.
Elval3 (Huc) is a neural progenitor marker. Expression of Elavl3 (Huc) was also analyzed by quantitative PCR and in situ hybridization. […]

[3] = system: zebrafish; test: Resistance to thalidomide in brain development (brain thickness to body length); type: in vivo; settings: BRD7-knockdown larvae, 400 μM thalidomide
Experimental: To analyze the functional relationship between thalidomide and BRD7, brain development of BRD7-knockdown zebrafish treated with thalidomide was examined and compared with that of normal zebrafish treated with thalidomide. […] FIGS. 12A and 12B show the normal zebrafish treated with 400 μM thalidomide. FIGS. 12C and 12D show the BRD7-knockdown zebrafish treated with 400 μM thalidomide. FIGS. 12A′ and 12C′ show the brain regions of the normal zebrafish treated with 400 μM thalidomide. FIGS. 12B′ and 12D′ show the brain regions of the BRD7-knockdown zebrafish treated with 400 μM thalidomide. […] The percentages of brain thickness to body length in the normal and the BRD7-knockdown zebrafish, with or without thalidomide treatments were also measured. […] The brain size of the BRD7-knockdown larvae incubated in thalidomide is 98.8% of that of the BRD7-knockdown larvae incubated in the absence of thalidomide.

[4] = fold of level in untreated embryos

Row | SMILES | bands representing CRBN-containing (self-ubiquitinated) proteins [1] | expression of Nanog (change) ([2]; FIG. 13) | expression of Pou5f1 (change) ([2]; FIG. 13) | expression of Zic3 (change) ([2]; FIG. 13) | Notch3 mRNA expression [2, 4] [fold] | Nrp2b mRNA expression [2, 4] [fold] | brain size of BRD7-knockdown larvae incubated in thalidomide relative to absence of thalidomide [3] [%]
1 | CC(C)C[C@@H](C=O)NC(=O)[C@H](CC(C)C)NC(=O)[C@H](CC(C)C)NC(=O)OCc1ccccc1 [MG132] (Cbz-Leu-Leu-Leu-aldehyde) | a number of bands representing CRBN-containing proteins were detected |  |  |  |  |  | 
2 | O=C1CCC(N2C(=O)c3ccccc3C2=O)C(=O)N1 (stereo not shown) [thalidomide, reference compound] |  | decreased | decreased | decreased | 0.3 | 0.4 | 98.8
